According to US8197860B2, “Method for enhancing nutrient absorption with astragalosides” (Nuliv Holding Inc., priority 2005, dated 2012):

Key:
Type in all cases: cell-based, human
Caco2 cells = assay: Folate uptake assay; set-up: key to * (regulatory effect on folate uptake): ↑: the arrows that point up represent the enhancing effect on folate uptake; conditions: compound 0.1 μM; for Uptake rate (folate): 2 days, 5 μM folate, pH 6.0
Procedure: (§1) To evaluate the effect of the isolated astragaloside compound on the uptake of nutrient substances across the intestinal lumen, Caco-2 cells were grown on permeable filter as an experimental model. Caco2 cells originate from human colonic adenocarcinoma and spontaneously differentiate into an enterocyte-like phenotype after two weeks. The Caco-2 cell line, derived from a human colorectal carcinoma, has been used as an in vitro model system for studying drug absorption in gastrointestinal tract. These cells form monolayers with well-developed tight-junctions, and have been evaluated in details as an in vitro model to study both transcellular transport of nutrients and drugs in intestinal lumen.
(§2) Caco-2 cells were obtained from the ATCC (American Type Culture Collection). The cells were maintained in Dulbecco's modified Eagle medium (DMEM) containing 4.5 g/L glucose and 25 mM Hepes, supplemented with 10% fetal calf serum, 100 U/mL penicillin G and […]. The medium was changed every second day. The cells were routinely checked for Mycoplasma in monthly intervals. Caco-2 cells were cultured on semi-permeable membranes to differentiate into a highly functionalized epithelial barrier with remarkable morphological and biochemical similarity to the small intestinal columnar epithelium. The Caco-2 cell monolayers could therefore be used to study the membrane transport properties of many compounds. To trypsinize the cells, the culture dish was washed once with phosphate-buffered saline (PBS) followed by adding trypsine-EDTA for 10 minutes. The trypsinized cells were separated and filtered into single cells using a 35-μm strainer cap (Falcon 2235) before being seeded for further experiments.
Caco-2 cells (5×10^4) were seeded in a 48-well plate and maintained in culture medium (DMEM with 10% FBS, 1% nonessential amino acids, L-glutamine, penicillin G (100 U/mL), streptomycin (10 μg/mL), and amphotericin B (2.5 μg/mL) in a 37° C. incubator for 10 days for the cells to differentiate. The culture medium was changed once every two days. The cells were then washed with PBS before replenishing with the culture medium containing 5% FBS and various astragalosides at the indicated concentrations (0.01, 0.1 and 1 μM) for 48 hours. The Caco2 cells were washed out of remaining glucose with PBS and replaced in the glucose buffer (80 mM NaCl, 100 mM mannitol, 20 mM Tris-HCl, pH 7.4, 3 mM K2HPO4, 1 mM CaCl2, 1 mg/mL BSA) for 1 hour. Glucose uptake was initiated by replacing the glucose buffer with 0.2 ml of glucose buffer containing 2 μCi/mL of ^14C-glucose and unlabeled cold glucose to give a final glucose concentration of 25 mM. Glucose uptake was stopped by removing the glucose buffer and washing with PBS at designated time intervals. The cells were lysed in 0.2 mL of 0.2 N NaOH, and 20 μL of the cell lysate were transferred to the filter-bottomed UniFilter plates (Perkin-Elmer, Wellesley, Mass., USA) and dried in a vacuum oven at 37° C. The bottom of the UniFilter plate was sealed and 25 μL of the counting solution were added into each well. Adhesive plate sealers were used in place of the lids and radioactivity of each sample was counted using the microplate liquid scintillation counter (TopCount, Packard NXT, Packard BioScience Company, Meriden, Conn., USA). The amount of glucose accumulated in the cells was calculated and normalized to protein concentration, and uptake rate was expressed as nanomoles of glucose per minutes per milligram of cell protein (nmol/min/mg). Protein concentration was determined by a standard Bicinchoninic acid (BCA) protein assay. Nonspecific glucose uptake was measured by adding 2 μCi of L-[^14C]-glucose and subtracting from each determination to obtain specific glucose uptake.
The Caco2 cells were subjected to folate uptake test in a manner similar to that described in the glucose uptake assay in Example 1 above. […]

Caco-2 cell monolayer [1] = assay: Tryptophan absorption assay (transport across Caco-2 cell monolayer); set-up: key to * (regulatory effect on tryptophan transport): ↑: the arrows that point up represent the enhancing effect on the tryptophan transport; conditions: for Regulatory effects on the tryptophan transport across the Caco2 cell monolayer: Table 4 summary; for Tryptophan transport rate: concentration from 0.01 μM to 1 mM
Procedure: as §1, §2
(§3) In measuring transport of arginine across the Caco-2 cell monolayer, both sides of the transwells were washed with arginine incubation buffer consisting of: 137 mM NaCl, 10 mM Hepes, 0.3 mM NaH2PO4, 0.3 mM K2HPO4, 5.4 mM KCl, 2.8 mM CaCl2, 1 mM MgSO4, 10 mM glucose, adjusted to pH 7.4. Then, the cell layer was preincubated in the incubation buffer at 37° C. for 1 h. The volume of incubation buffer was 0.2 mL and 0.9 mL in the apical and basolateral chambers, respectively. The cells were replaced with fresh incubation medium in both chambers prior to the transport experiment. The transport experiment was initiated by replacing the incubation solution on the apical side with solution containing 10 mM of L-arginine in which 0.125 μCi/mL of L-[^3H]-arginine was included. At designated time intervals, 10 μL-solution samples were removed from the basolateral side and radioactivity of each sample was counted using a microplate liquid scintillation counter (TopCount, Packard NXT). During the experiment, when a 10 μL-solution sample was removed from the basolateral side every time, 10 μL buffer was supplemented to keep the volume constant. The uptake of [^3H]-mannitol was used to correct for nonspecific transport of molecules across the monolayer membrane. Results were expressed as the nanomoles of arginine transport across the Caco-2 cell monolayers with respect to time in minutes (nmol/min).
The experimental procedures similar to those in Example 2 were used for measuring the uptake of tryptophan molecules across the Caco-2 membrane, except using a tryptophan incubation buffer consisting of 137 mM choline chloride, 10 mM Hepes, 0.6 mM KH2PO4, 5.4 mM KCl, 2.8 mM CaCl2, 1 mM MgSO4, and 10 mM glucose, and having its pH adjusted to 7.4. Results were expressed as the nanomoles of tryptophan transport across the Caco-2 cell monolayers with respect to time in minutes (nmol/min).

Caco-2 cell monolayer [2] = assay: Arginine absorption assay (transport across Caco-2 cell monolayer); set-up: key to * (regulatory effect on arginine transport): ↑: the arrows that point up represent the enhancing effect on the arginine transport; conditions: for Regulatory effects on the arginine transport across the Caco2 cell monolayer: Table 3 summary; for Transport rate (arginine): 10 mM L-arginine apical
Procedure: as §1, §2, §3

[3] = concentration from 0.01 μM to 1 μM

| Compound | * (regulatory effect on folate uptake) (Caco2 cells) | Percentage (folate uptake vs own control) (Caco2 cells) | Uptake rate (folate) (Caco2 cells) | Regulatory effects on the tryptophan transport across the Caco2 cell monolayer (Caco-2 cell monolayer [1]) | * (regulatory effect on tryptophan transport) (Caco-2 cell monolayer [1]; compound 0.01 μM) | Percentage (tryptophan transport, control = 100) (Caco-2 cell monolayer [1]; compound 0.01 μM) | Transport rate (tryptophan) (Caco-2 cell monolayer [1]; compound 0.01 μM) | * (regulatory effect on tryptophan transport) (Caco-2 cell monolayer [1]; compound 0.1 μM) | Percentage (tryptophan transport, control = 100) (Caco-2 cell monolayer [1]; compound 0.1 μM) | Transport rate (tryptophan) (Caco-2 cell monolayer [1]; compound 0.1 μM) | * (regulatory effect on tryptophan transport) (Caco-2 cell monolayer [1]; compound 1 μM) | Percentage (tryptophan transport, control = 100) (Caco-2 cell monolayer [1]; compound 1 μM) | Tryptophan transport rate (Caco-2 cell monolayer [1]) | Regulatory effects on the arginine transport across the Caco2 cell monolayer (Caco-2 cell monolayer [2]) | * (regulatory effect on arginine transport) (Caco-2 cell monolayer [2]; compound 0.01 μM) | Percentage (arginine transport, control = 100) (Caco-2 cell monolayer [2]; compound 0.01 μM) | Transport rate (arginine) (Caco-2 cell monolayer [2]; compound 0.01 μM) | * (regulatory effect on arginine transport) (Caco-2 cell monolayer [2]; compound 0.1 μM) | Percentage (arginine transport, control = 100) (Caco-2 cell monolayer [2]; compound 0.1 μM) | Transport rate (arginine) (Caco-2 cell monolayer [2]; compound 0.1 μM) | other results |
| --- | --- | --- | --- | --- | --- | --- | --- | --- | --- | --- | --- | --- | --- | --- | --- | --- | --- | --- | --- | --- | --- |
| CC(=O)O[C@H]1[C@H](O[C@H]2CC[C@]34C[C@]35CC[C@]3(C)[C@@H]([C@@]6(C)CC[C@@H](C(C)(C)O)O6)[C@@H](O)C[C@@]3(C)[C@@H]5C[C@H](O[C@@H]3O[C@H](CO)[C@@H](O)[C@H](O)[C@H]3O)[C@H]4C2(C)C)OC[C@@H](OC(C)=O)[C@@H]1O [IsoAS1, isoastragaloside I] | ↑ | 144.83% | 73.460 ± 3.6060 pmol/mg/min | had regulatory effects on the tryptophan transport | ↑ | 115.97% | 10.370 ± 0.8808 nmol/min | ↑ | 149.52% | 13.370 ± 0.3301 nmol/min | ↑ | 118.54% | increased | had regulatory effects on the arginine transport | ↑ | 135.49% | 14.4776 ± 0.5519 nmol/min | ↑ | 199.44% | 21.3107 ± 1.5130 nmol/min | Transport rate (tryptophan) (Caco-2 cell monolayer [1]; compound 1 μM): 10.600 ± 0.8058 nmol/min; * (regulatory effect on arginine transport) (Caco-2 cell monolayer [2]; compound 1 μM): ↑; Percentage (arginine transport, control = 100) (Caco-2 cell monolayer [2]; compound 1 μM): 135.41%; Transport rate (arginine) (Caco-2 cell monolayer [2]; compound 1 μM): 14.4734 ± 1.1350 nmol/min; Arginine transport rate (Caco-2 cell monolayer [2]; [3]): increased |
| CC(C)(O)[C@@H]1CC[C@](C)([C@H]2[C@@H](O)C[C@@]3(C)[C@@H]4C[C@H](O)[C@H]5C(C)(C)[C@@H](O[C@@H]6OC[C@@H](O)[C@H](O)[C@H]6O[C@@H]6O[C@H](CO)[C@@H](O)[C@H](O)[C@H]6O)CC[C@@]56C[C@@]46CC[C@]23C)O1 [AS3, astragaloside III] | ↑ | 145.41% | 80.380 ± 6.2170 pmol/mg/min | had regulatory effects on the tryptophan transport | ↑ | 159.81% | 14.290 ± 1.3910 nmol/min | ↑ | 151.98% | 13.590 ± 1.0080 nmol/min | ↑ | 270.63% | increased | had regulatory effects on the arginine transport | ↑ | 121.74% | 13.0084 ± 1.0510 nmol/min | ↑ | 124.33% | 13.2858 ± 1.4110 nmol/min | Transport rate (tryptophan) (Caco-2 cell monolayer [1]; compound 1 μM): 24.200 ± 1.0260 nmol/min; * (regulatory effect on arginine transport) (Caco-2 cell monolayer [2]; compound 1 μM): ↑; Percentage (arginine transport, control = 100) (Caco-2 cell monolayer [2]; compound 1 μM): 148.18%; Transport rate (arginine) (Caco-2 cell monolayer [2]; compound 1 μM): 15.8341 ± 1.0000 nmol/min; Arginine transport rate (Caco-2 cell monolayer [2]; [3]): increased |
| CC(=O)O[C@H]1[C@H](O[C@H]2CC[C@]34C[C@]35CC[C@]3(C)[C@@H]([C@@]6(C)CC[C@@H](C(C)(C)O)O6)[C@@H](O)C[C@@]3(C)[C@@H]5C[C@H](O[C@@H]3O[C@H](CO)[C@@H](O)[C@H](O)[C@H]3O)[C@H]4C2(C)C)OC[C@@H](O)[C@@H]1O [AS2, astragaloside II] | ↑ | 129.05% | 69.970 ± 3.7720 pmol/mg/min | had regulatory effects on the tryptophan transport | ↑ | 115.07% | 10.290 ± 0.4115 nmol/min | ↑ | 130.28% | 11.650 ± 0.5789 nmol/min |  |  | increased | had regulatory effects on the arginine transport | ↑ | 151.94% | 16.2358 ± 1.6190 nmol/min | ↑ | 161.69% | 17.2771 ± 1.6170 nmol/min | * (regulatory effect on arginine transport) (Caco-2 cell monolayer [2]; compound 0.001 μM): ↑; Percentage (arginine transport, control = 100) (Caco-2 cell monolayer [2]; compound 0.001 μM): 136.97%; Transport rate (arginine) (Caco-2 cell monolayer [2]; compound 0.001 μM): 14.6355 ± 1.2910 nmol/min; Arginine transport rate (Caco-2 cell monolayer [2]; concentration from 0.001 μM to 0.1 μM): increased |
